# Measurements published in patent US12065434B2, “Metabolites of GLP1R agonists” (Pfizer Inc., priority 2020, dated 2024).
# pEC50: −log10 of the molar value.
# How the values were obtained:
# human GLP-1R [1] = target: human GLP-1R (Homo sapiens, UniProt P43220, G168S); assay: CHO GLP-1R Clone H6 - Assay 1 (HTRF cAMP agonist assay); conditions: read-out: Assay 1 Emax (%)
# Description: (§6) GLP-1R-mediated agonist activity was determined with a cell-based functional assay utilizing an HTRF (Homogeneous Time-Resolved Fluorescence) cAMP detection kit (cAMP HI Range Assay Kit; CisBio cat #62AM6PEJ) that measures cAMP levels in the cell. The method is a competitive immunoassay between native cAMP produced by the cells and exogenous cAMP labeled with the dye d2. The tracer binding is visualized by a mAb anti-cAMP labeled with Cryptate. The specific signal (i.e. energy transfer) is inversely proportional to the concentration of cAMP in either standard or experimental sample.
# (§7) The human GLP-1R coding sequence (NCBI Reference Sequence NP_002053.3, including naturally-occurring variant Gly168Ser) was subcloned into pcDNA3 (Invitrogen) and a cell line stably expressing the receptor was isolated (designated Clone H6).
# (§8) Cells were removed from cryopreservation, re-suspended in 40 mL of Dulbecco's Phosphate Buffered Saline (DPBS—Lonza Cat #17-512Q) and centrifuged at 800×g for 5 minutes at 22° C. The cell pellet was then re-suspended in 10 mL of growth medium [DMEM/F12 1:1 Mixture with HEPES, L-Gln, 500 mL (DMEM/F12 Lonza Cat #12-719F), 10% heat inactivated fetal bovine serum (Gibco Cat #16140-071), 5 mL of 100× Pen-Strep (Gibco Cat #15140-122), 5 mL of 100× L-Glutamine (Gibco Cat #25030-081) and 500 μg/mL Geneticin (G418) (Invitrogen #10131035)]. A 1 mL sample of the cell suspension in growth media was counted on a Becton Dickinson ViCell to determine cell viability and cell count per mL. The remaining cell suspension was then adjusted with growth media to deliver 2000 viable cells per well using a Matrix Combi Multidrop reagent dispenser, and the cells were dispensed into a white 384 well tissue culture treated assay plate (Corning 3570). The assay plate was then incubated for 48 hours at 37° C. in a humidified environment in 5% carbon dioxide.
# (§9) Varying concentrations of each compound to be tested (in DMSO) were diluted in assay buffer (HBSS with Calcium/Magnesium (Lonza/BioWhittaker cat #10-527F)/0.1% BSA (Sigma Aldrich cat #A7409-1L)/20 mM HEPES (Lonza/BioWhittaker cat #17-737E) containing 100 μM 3-isobutyl-1-methylxanthin (IBMX; Sigma cat #15879). The final DMSO concentration is 1%.
# (§10) After 48 hours, the growth media was removed from the assay plate wells, and the cells were treated with 20 μL of the serially diluted compound in assay buffer for 30 minutes at 37° C. in a humidified environment in 5% carbon dioxide. Following the 30 minute incubation, 10 μL of labeled d2 cAMP and 10 μL of anti-cAMP antibody (both diluted 1:20 in cell lysis buffer; as described in the manufacturer's assay protocol) were added to each well of the assay plate. The plates were then incubated at room temperature and after 60 minutes, changes in the HTRF signal were read with an Envision 2104 multi-label plate reader using excitation of 330 nm and emissions of 615 and 665 nm. Raw data were converted to nM cAMP by interpolation from a cAMP standard curve (as described in the manufacturer's assay protocol) and the percent effect was determined relative to a saturating concentration of the full agonist GLP-17-36 (1 μM) included on each plate. EC50 determinations were made from agonist dose-response curves analyzed with a curve fitting program using a 4-parameter logistic dose response equation.
# human GLP-1R [2] = target: human GLP-1R (Homo sapiens, UniProt P43220); assay: as above
# Description: as §6, §7, §8, §9, §10
# [3] = Metabolite profiling of pooled human plasma after repeat oral dosing of Compound 1 (HPLC/UV/MS); conditions: for observed as major or minor metabolite in human plasma: Compound 1 120 mg BID, Day 28; for Plasma Extracts: Compound 1 120 mg oral BID, Day 28, HPLC/UV/MS
# Description: Plasma samples from nine human subjects following oral administration of 120 mg BID for 28 days in a clinical study were examined for metabolites.
# Individual subject's plasma (from nine human subjects with 120 mg BID dose Day 28) were pooled in proportion to the time period represented by each to yield a pool for profiling that was representative of the AUC (0-12 hr) according to the method of Hamilton et al. [Hamilton R A, Garnett W R, Kline B J. Determination of a mean valproic acid serum level by assay of a single pooled sample. […] Pooled plasma time points were first prepared by aliquoting equal amounts (1.0 mL) of plasma from each subject prior to making a single Hamilton pool. Blank plasma pools were made by taking equal aliquots of predose samples. To a 2 mL aliquot of each pooled plasma sample was added 6 mL of acetonitrile and then mixed. Protein precipitated samples were centrifuged for 5 minutes at 2000×g and the supernatants were transferred to other clean 15 mL centrifuge tubes. Samples were dried using an evaporative centrifuge set to 37° C. Samples were reconstituted using 0.2 mL of 5:95 acetonitrile:water and analyzed by HPLC/UV/MS.
# Reconstituted samples were analyzed by positive ion HPLC/UV/MS using a Thermo Orbitrap Elite mass spectrometer operating in positive ion electrospray mode. Xcalibur software version 3.0.63 was used to control the HPLC/UV/MS system. Full scan data were collected at 15,000 resolution. Data dependent product ion scans of the two most intense ions found in the full scan were obtained at 15,000 resolution. The dynamic exclusion function was used with a 10 second exclusion duration after 3 successive product ion scans with an early exclusion if the precursor ion fell below a signal to noise ratio of 20. The HPLC system consisted of an Accela quaternary solvent delivery pump, an Accela autoinjector, an Accela PDA Plus photodiode array detector (Thermo Electron Corporation). Chromatography was performed on a Phenomenex Kinetex column (2.1 mm×100 mm, 2.6 μm) at 45° C. using a HotSleeve column heater (Analytical Sales and Services). The mobile phase was composed of 0.1% formic acid in water (solvent A) and acetonitrile (solvent B). The solvent delivery gradient program was as follows:
# human GLP-1R [4] = target: T1, human GLP-1R (Homo sapiens, UniProt P43220, L260F); assay: CHO GLP-1R Clone C6 - Assay 2 (HTRF cAMP agonist assay, low receptor density); type: cell-based; conditions: CHO GLP-1R Clone C6 (low receptor density); for Emax: arithmetic mean, relative to 1 μM GLP-1; for pEC50: geometric mean
# T1 construct: expressed in transfected cells
# Description: GLP-1R-mediated agonist activity was determined with a cell-based functional assay utilizing an HTRF (Homogeneous Time-Resolved Fluorescence) cAMP detection kit (cAMP HI Range Assay Kit; Cis Bio cat #62AM6PEJ) that measures cAMP levels in the cell. The method is a competitive immunoassay between native cAMP produced by the cells and exogenous cAMP labeled with the dye d2. The tracer binding is visualized by a mAb anti-cAMP labeled with Cryptate. The specific signal (i.e. energy transfer) is inversely proportional to the concentration of cAMP in either a standard or an experimental sample.
# The human GLP-1R coding sequence (NCBI Reference Sequence NP_002053.3, including naturally-occurring variant Leu260Phe) was subcloned into pcDNA5-FRT-TO and a clonal CHO cell line stably expressing a low receptor density was isolated using the Flp-In™ T-Rex™ System, as described by the manufacturer (ThermoFisher).
# Cells were removed from cryopreservation, re-suspended in 40 mL of Dulbecco's Phosphate Buffered Saline (DPBS—Lonza Cat #17-512Q) and centrifuged at 800×g for 5 minutes at 22° C. The DPBS was aspirated, and the cell pellet was re-suspended in 10 mL of complete growth medium (DMEM:F12 1:1 Mixture with HEPES, L-Gln, 500 mL (DMEM/F12 Lonza Cat #12-719F), 10% heat inactivated fetal bovine serum (Gibco Cat #16140-071), 5 mL of 100× Pen-Strep (Gibco Cat #15140-122), 5 mL of 100× L-Glutamine (Gibco Cat #25030-081), 700 μg/mL Hygromycin (Invitrogen Cat #10687010) and 15 μg/mL Blasticidin (Gibco Cat #R21001). A 1 mL sample of the cell suspension in growth media was counted on a Becton Dickinson ViCell to determine cell viability and cell count per mL. The remaining cell suspension was then adjusted with growth media to deliver 1600 viable cells per well using a Matrix Combi Multidrop reagent dispenser, and the cells were dispensed into a white 384 well tissue culture treated assay plate (Corning 3570). The assay plate was then incubated for 48 hours at 37° C. in a humidified environment (95% O2, 5% CO2)
# Varying concentrations of each compound to be tested (in DMSO) were diluted in assay buffer [HBSS with Calcium/Magnesium (Lonza/BioWhittaker cat #10-527F)/0.1% BSA (Sigma Aldrich cat #A7409-1L)/20 mM HEPES (Lonza/BioWhittaker cat #17-737E)] containing 100 μM 3-isobutyl-1-methylxanthin (IBMX; Sigma cat #15879). The final DMSO concentration in the compound/assay buffer mixture is 1%.
# After 48 hours, the growth media was removed from the assay plate wells, and the cells were treated with 20 μL of the serially diluted compound in assay buffer for 30 minutes at 37° C. in a humidified environment (95% O2, 5% CO2). Following the 30 minute incubation, 10 μL of labeled d2 cAMP and 10 μL of anti-cAMP antibody (both diluted 1:20 in cell lysis buffer; as described in the manufacturer's assay protocol) were added to each well of the assay plate. The plates were then incubated at room temperature and after 60 minutes, changes in the HTRF signal were read with an Envision 2104 multi-label plate reader using excitation of 330 nm and emissions of 615 and 665 nm. Raw data were converted to nM cAMP by interpolation from a cAMP standard curve (as described in the manufacturer's assay protocol) and the percent effect was determined relative to a saturating concentration of the full agonist GLP-1 (1 μM) included on each plate. EC50 determinations were made from agonist dose response curves analyzed with a curve fitting program using a 4-parameter logistic dose response equation.
# [5] = Circulating metabolites of Compound 2 in rat plasma following a 1.0 mg/kg IV bolus dose; type: in vivo; conditions: 1.0 mg/kg IV bolus dose of Compound 2, pooled 0.033-24 hrs
# Description: (§1) Plasma and bile samples were obtained from a bile duct cannulated rat experiment (Study PK-0111) in which a 1.0 mg/kg IV bolus dose was administered to fed male rats (N=3). No control plasma was available from this experiment.
# Clin Pharmacol Ther 1981; 29(3):408-13]. The entire volume of each replicate Hamilton pool was combined to create a single pooled sample (576 μL) for analysis.
# (§2) Pooled plasma and bile samples were extracted with ACN containing 0.1% formic acid, and after centrifugation at 1900×g, the supernatant was transferred to clean tubes and evaporated under N2 in a Turbovap set at 37° C. Residues were reconstituted in mobile phase (5:95 v:v ACN:0.1% aqueous formic acid) prior to analysis by HPLC/UV/MS^n.
# (§3) Samples were analyzed by HPLC/UV/MS^n using a Thermo Orbitrap Elite mass spectrometer in conjunction with a Thermo Open Accela UHPLC system. A 3.0×150 mm, 2.5 μm Acquity CSH C18 HPLC column (Waters) was heated to 45° C. for separation of analytes. The mobile phase was a gradient of A): water containing 0.1% formic acid, and B): acetonitrile. The flow rate was 450 μL/min, and the following gradient program was utilized: […]
# (§4) UV absorbance was monitored with a photo-diode array detector from 220-450 nm. The mass spectrometer was operated in positive-ion mode with a HESI ion source at a potential of 3.0 kV, and capillary and source heater temperatures of 380 and 300° C., respectively. Sheath, auxiliary, and sweep gas flows were set to 45, 10, and 2 units, respectively. Full scan mass spectra were acquired over the range 120-1200 m/z at a resolving power of 30,000 (specified at m/z 400). Data-dependent MS^n spectra were acquired in an automated fashion at 15,000 resolving power using CID and HCD fragmentation with normalized collision energy settings of 28 and 65 V, respectively.
# (§5) Metabolites were characterized by comparisons of mass spectral fragmentation patterns with that of a Compound 2 standard. All HPLC/UV/MS^n data were processed using Xcalibur v. 2.2, and integrated UV peak areas were subjected to weighted UV binning procedures utilizing an Excel template.
# [6] = Metabolites of Compound 2 in rat bile following a 1.0 mg/kg IV bolus dose; type: in vivo; conditions: 1.0 mg/kg IV bolus dose of Compound 2, bile duct cannulated rats, pooled 0-24 hrs
# Description: as §1
# Bile samples (0-3, 3-7, and 7-24 hrs) from individual animals were pooled in proportion to the amount collect in each interval. Then 0.5 mL of each individual pool was combined to prepare a composite sample for analysis.
# as §2, §3, §4, §5
# Chain of human GLP-1R (Homo sapiens, UniProt P43220, G168S) (P43220 24-463 G168S): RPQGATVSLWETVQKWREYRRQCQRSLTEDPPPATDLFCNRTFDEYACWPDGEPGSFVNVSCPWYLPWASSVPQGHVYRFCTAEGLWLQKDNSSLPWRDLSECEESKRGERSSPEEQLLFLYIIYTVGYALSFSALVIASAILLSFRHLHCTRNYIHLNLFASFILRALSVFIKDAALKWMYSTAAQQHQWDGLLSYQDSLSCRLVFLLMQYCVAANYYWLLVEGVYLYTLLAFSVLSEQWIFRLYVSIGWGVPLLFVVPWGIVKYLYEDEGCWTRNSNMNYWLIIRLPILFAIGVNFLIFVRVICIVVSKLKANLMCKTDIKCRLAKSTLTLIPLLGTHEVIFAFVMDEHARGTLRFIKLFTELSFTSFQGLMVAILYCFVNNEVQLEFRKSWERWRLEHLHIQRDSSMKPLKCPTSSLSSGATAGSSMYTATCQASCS
# T1 sequence (P43220 24-463 L260F): as the sequence (P43220 24-463 G168S) above, with S145G, L237F counted along it
# Chain of human GLP-1R (Homo sapiens, UniProt P43220) (P43220 24-463 G168S): as the sequence (P43220 24-463 G168S) above
Emax (human GLP-1R [1]),pEC50 (human GLP-1R [2]),observed as major or minor metabolite in human plasma [3],Plasma Extracts [3],Emax (human GLP-1R [4]),pEC50 (human GLP-1R [4]),detected in rat plasma [5],detected in rat bile [6],Structure (SMILES)
2%,< 4.70,major circulating metabolite,+++,0%,< 4.70,,,"O=C(O)c1ccc2nc(CN3CCC(c4cccc(=O)[nH]4)CC3)n(C[C@@H]3CCO3)c2c1 [Compound M2, (S)-2-((4-(6-hydroxypyridin-2-yl)piperidin-1-yl)methyl)-1-(oxetan-2-ylmethyl)-1H-benzo[d]imidazole-6-carboxylic acid]"
114%,6.89,minor metabolite,+,98%,5.60,,,"N#Cc1ccc(COc2cccc(C3CCN(Cc4nc5ccc(C(=O)O[C@@H]6O[C@H](C(=O)O)[C@@H](O)[C@H](O)[C@H]6O)cc5n4C[C@@H]4CCO4)CC3)n2)c(F)c1 [Compound M1, (2S,3S,4S,5R,6S)-6-((2-((4-(6-((4-cyano-2-fluorobenzyl)oxy)pyridin-2-yl)piperidin-1-yl)methyl)-1-(((S)-oxetan-2-yl)methyl)-1H-benzo[d]imidazole-6-carbonyl)oxy)-3,4,5-trihydroxytetrahydro-2H-pyran-2-carboxylic acid]"
99%,,,,96%,,detected,detected,"C[C@]1(c2ccc(Cl)cn2)Oc2cccc(C3CCN(Cc4nc5ccc(C(=O)O)cc5n4C[C@@H]4CCO4)CC3)c2O1 [Compound 2, 2-((4-((S)-2-(5-chloropyridin-2-yl)-2-methylbenzo[d][1,3]dioxol-4-yl)piperidin-1-yl)methyl)-1-(((S)-oxetan-2-yl)methyl)-1H-benzo[d]imidazole-6-carboxylic acid]"
